The text below walks through data of paper PMC9147192, “Small Molecule Arranged Thermal Proximity Coaggregation (smarTPCA)—A Novel Approach to Characterize Protein–Protein Interactions in Living Cells by Similar Isothermal Dose–Responses” (International Journal of Molecular Sciences, 2022).

The target of one assay is MRPS34 (Homo sapiens, UniProt P82930). In words: TPP-CCR in living HL-60 cells.
The target of a further assay is MAPK14 (Homo sapiens, UniProt Q16539). Description: TPP-TR in living HL-60 cells. The class given is cell-based. The settings on record: 20 μM, single set (no replicates). On the procedure:
(§1) HL-60 cells (ATCC No. CCL-240) were expanded to about […] in 80 mL cell culture medium (RPMI-1640 supplemented with 10% (v/v) FBS, 1% (v/v) penicillin-streptomycin and 1% (v/v) L-glutamine solution) and divided into four aliquots (20 mL each, 25 million cells per flask). […] The same volume of DMSO was added to the remaining aliquot serving as the vehicle (DMSO) control. After incubation (1 h, 37 °C, 5% CO2, in cell culture CO2 incubator), the cell suspensions were transferred into 50 mL conical tubes, cell number and viability were determined, and after centrifugation (300 relative centrifugal force (rcf), 3 min, room temperature (r.t.)), the supernatants were completely removed and discarded. The cells were washed using 20 mL Dulbecco’s phosphate-buffered saline (PBS), respectively, by resuspension and centrifugation (300 rcf, 3 min, r.t.). After the complete removal of the supernatants, the cells were transferred into pre-weighed 2 mL Eppendorf tubes using 0.5 mL PBS (r.t.), respectively, for resuspending. After centrifugation (300 rcf, 3 min, r.t.) and removing as much as possible of the supernatants, the cell wet weights were determined.
(§2) The suspensions were shortly centrifuged (1 s or less) using a benchtop centrifuge that was equipped with an inset for PCR tubes to release trapped air and to achieve an even liquid level without pelleting the cells. The 100 µL cell suspensions were then temperature treated by a 7 min pre-incubation at r.t., a 3 min incubation at the following different temperatures in the PCR cycler (DNA Engine Tetrad 2, lid temperature 70 °C, gradient block 1: 36–55 °C, gradient block 2: 48–67 °C), and a 3 min post-incubation at r.t. in a metal heating block for uniform heat dissipation.
(§3) The cells were lysed by four freeze/thaw cycles consisting of thawing the samples (in a heat block set to 25 °C and shaking at 1250 rpm) accompanied by mixing them several times by inversion and then shock freezing them again in liquid nitrogen. The resulting lysates were kept cold (on ice or 4 °C) from then on. After centrifugation (20,000 rcf, 30 min, 4 °C) to pellet the cell debris together with precipitated and aggregated proteins, the supernatants were recovered and, after determining the total protein concentration (Pierce 660 nm Protein Assay, BSA as standard), the resulting cell extracts containing the fraction of soluble, non-denatured proteins were shock frozen in liquid nitrogen and stored at −80 °C.
(§4) For each sample set comprising ten temperature range samples, the same volume of the cell extracts containing the fraction of soluble, non-denatured proteins was used for further analysis. Volume calculation for 30 µg total protein was performed as described for SDS-PAGE and immunoblotting. The calculated volume was respectively transferred into 0.5 mL LoBind Eppendorf tubes and evaporated to dryness using vacuum centrifugation (SpeedVac concentrator, Eppendorf, Hamburg, Germany). The dried proteins were each reconstituted in 10 µL of SDS sample buffer (containing DTT) and incubated for 30 min at 50 °C with shaking (700 rpm). 1.111 µL 1 M iodoacetamide (IAA) was added to each sample (final 100 mM IAA), then the samples were mixed and incubated for 30 min at r.t. in the dark. Sample quality was controlled by SDS-PAGE/silver staining using 0.926 µL of each sample (2.5 µg on average for the two lowest temperature samples; 26-well 4–12% Bis-Tris polyacrylamide gels, Novex NuPAGE, Thermo Scientific; 15 min at 50 V, about 1.5 h at 200 V using the recommended MOPS running buffer).

The next assay has as its target T1, MAPK3 (Homo sapiens, UniProt P27361).
T1 construct: endogenous in cells; host or cells: HL-60 (ATCC CCL-240)
Description: TPP-TR in living HL-60 cells. The class given is cell-based. The following applies: 20 μM, single set (no replicates). Here is the method: as §1, §2, §3, §4

Another assay has as its target WDR46 (Homo sapiens, UniProt O15213). Description: TPP-CCR in living HL-60 cells.
[1] abbreviates: living HL-60 cells, […] °C, TMT-MS.

In general, EC50 refers to the concentration giving half of the maximal effect.

Chain of WDR46 (O15213 whole entry): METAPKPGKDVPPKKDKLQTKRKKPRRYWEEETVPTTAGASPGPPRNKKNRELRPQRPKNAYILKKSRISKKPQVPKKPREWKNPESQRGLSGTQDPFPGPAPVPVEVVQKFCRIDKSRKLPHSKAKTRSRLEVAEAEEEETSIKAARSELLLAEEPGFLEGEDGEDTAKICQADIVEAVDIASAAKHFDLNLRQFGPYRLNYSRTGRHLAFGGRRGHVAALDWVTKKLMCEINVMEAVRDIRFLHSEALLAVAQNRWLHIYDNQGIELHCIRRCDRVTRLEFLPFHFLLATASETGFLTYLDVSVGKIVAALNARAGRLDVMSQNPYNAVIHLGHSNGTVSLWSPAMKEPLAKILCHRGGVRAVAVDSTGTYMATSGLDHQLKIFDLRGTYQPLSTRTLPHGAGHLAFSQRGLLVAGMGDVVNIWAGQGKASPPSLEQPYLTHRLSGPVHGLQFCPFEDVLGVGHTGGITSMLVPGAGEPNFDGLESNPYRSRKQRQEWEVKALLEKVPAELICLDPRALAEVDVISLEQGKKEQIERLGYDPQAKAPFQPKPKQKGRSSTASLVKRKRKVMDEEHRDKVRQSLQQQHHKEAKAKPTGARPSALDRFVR
T1 sequence (P27361 whole entry): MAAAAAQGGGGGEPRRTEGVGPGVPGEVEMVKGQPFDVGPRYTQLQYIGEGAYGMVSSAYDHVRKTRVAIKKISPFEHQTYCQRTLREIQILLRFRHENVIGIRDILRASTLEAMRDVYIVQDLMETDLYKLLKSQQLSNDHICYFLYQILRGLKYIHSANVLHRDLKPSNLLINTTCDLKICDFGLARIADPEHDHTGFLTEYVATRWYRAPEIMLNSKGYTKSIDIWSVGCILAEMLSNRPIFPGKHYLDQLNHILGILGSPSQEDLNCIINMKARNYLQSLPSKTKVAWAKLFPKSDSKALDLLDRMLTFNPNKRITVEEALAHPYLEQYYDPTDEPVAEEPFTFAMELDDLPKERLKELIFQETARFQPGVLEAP
Chain of MAPK14 (Q16539 whole entry): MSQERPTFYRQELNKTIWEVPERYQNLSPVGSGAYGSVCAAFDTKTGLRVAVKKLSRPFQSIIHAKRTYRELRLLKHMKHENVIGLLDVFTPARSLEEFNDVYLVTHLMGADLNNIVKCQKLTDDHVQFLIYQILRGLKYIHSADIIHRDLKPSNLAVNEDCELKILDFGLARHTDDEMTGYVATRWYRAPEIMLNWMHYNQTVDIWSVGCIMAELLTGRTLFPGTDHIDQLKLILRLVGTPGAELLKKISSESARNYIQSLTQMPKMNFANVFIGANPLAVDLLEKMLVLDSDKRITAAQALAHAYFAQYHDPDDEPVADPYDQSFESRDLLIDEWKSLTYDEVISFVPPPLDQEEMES

On MRPS34, `Cn1c(NC[C@@H](N)Cc2ccccc2)nc(-c2ccncc2)c(-c2ccc3ccccc3c2)c1=O` [AMG-548] showed an EC50 of 60.3 nM. The “Hill slope (MRPS34)” value at MRPS34 (setting [1]) is 0.26. For the same compound, the “thermal stabilization in melting curves (MAPK14)” value at MAPK14 is listed as “thermal stabilizations”.

In the case of `Cc1cnc(Nc2ccc(F)cc2Cl)nc1-c1c[nH]c(C(=O)N[C@H](CO)c2cccc(Cl)c2)c1` [ERK 11e], the “thermal stabilization in melting curves (MAPK3)” value on MAPK3 is on record as “thermal stabilization”.

Take `C[S+]([O-])c1ccc(-c2nc(-c3ccncc3)c(-c3ccc(F)cc3)[nH]2)cc1` (stereo not drawn) [SB203580]: the concentration for a half-maximal effect (EC50) on WDR46 is 32.4 nM. Further, the “Hill slope (WDR46)” value on WDR46 (setting [1]) came out at 0.23.
